The conditions of this data set: in n-octanol.

The values below come from BigSolDB 2.1.

Broadly, the solubility (mole fraction) is the moles of solute divided by all moles in the saturated solution. `COc1cc(NS(=O)(=O)c2ccc(N)cc2)ncn1` registered a solubility (mole fraction) (303.15 K) of 8.68e-05; a solubility (mole fraction) (308.15 K) of 9.52e-05; a solubility (mole fraction) (313.15 K) of 0.000104; a solubility (mole fraction) (323.15 K) of 0.00012; a solubility (mole fraction) (328.15 K) of 0.000129; a solubility (mole fraction) (333.15 K) of 0.000136.
For the molecule `COc1cc(NS(=O)(=O)c2ccc(N)cc2)nc(OC)n1`, the solubility (mole fraction) runs as follows: (298.15 K) 0.000167; (303.15 K) 0.00018; (308.15 K) 0.000194; (313.15 K) 0.000213; (318.15 K) 0.000235; (323.15 K) 0.000261. Besides, the solubility (mole fraction) (328.15 K) was 0.000294 and the solubility (mole fraction) (333.15 K) was 0.000332.
In turn, `COc1cnc(NS(=O)(=O)c2ccc(N)cc2)nc1` came in with a solubility (mole fraction) (298.15 K) of 8.8e-05; a solubility (mole fraction) (303.15 K) of 9.42e-05; a solubility (mole fraction) (308.15 K) of 0.000101; a solubility (mole fraction) (313.15 K) of 0.000108; a solubility (mole fraction) (318.15 K) of 0.000115; a solubility (mole fraction) (323.15 K) of 0.000123. The solubility (mole fraction) came to 0.000132 (328.15 K) and 0.000141 (333.15 K).
